Laboratory results reported in publication PMC7707621, “Oxidized Juncuenin B Analogues with Increased Antiproliferative Activity on Human Adherent Cell Lines: Semisynthesis and Biological Evaluation” (Journal of Natural Products, 2020).

Key:
[1] = test system: MCF-7 cells; assay: MTT antiproliferative assay on MCF-7; assay type: cell-based, human; settings: for inhibition at 10 µM / inhibition at 30 µM / IC50: Homo sapiens; for inhibition at 10 µM: MCF7, 10 μM; for inhibition at 10 µM / inhibition at 30 µM: read-out: Growth inhibition (% ± SEM), MCF-7; for inhibition at 30 µM: MCF7, 30 μM; for IC50: MCF7, MTT, 0.1–30 μM, 72 h, mean ± SEM, read-out: calculated IC50 values, MCF-7
Procedure: (§1) The antiproliferative assays of the products were carried out by a standard MTT method on human breast (MCF-7, T47D), cervical (HeLa, SiHa, C33A), and ovarian (A2780) cancer cells, and NIH/3T3 mouse embryonic fibroblast cell lines. In the first step, the diastereomeric and racemic mixtures 1–11 and the starting compound, juncuenin B, were tested to obtain information about their antiproliferative activity.
(§2) The antiproliferative activity and tumor selectivity of the compounds were measured by standard MTT assays. Tumor cell lines MCF-7, T47D, HeLa, A2780, and noncancerous NIH/3T3 were provided by European Collection of Authenticated Cell Cultures (ECACC, Salisbury, UK); cell lines SiHa and C33A by LGC Standards GmbH (Wesel, Germany). All chemicals and materials used for the antiproliferative assays were purchased from Sigma Aldrich Ltd. (Budapest, Hungary).
(§3) Growth-inhibition properties of racemates and pure enantiomer compounds were determined by standard MTT assays on six human malignant gynecological cell lines (MCF-7, T47D, HeLa, SiHa, C33A, A2780). To investigate tumor selectivity, the MTT assay was repeated on mouse embryonic fibroblast cells (NIH/3T3) under the same conditions. All cell lines were maintained in minimal essential medium (MEM) supplemented with 10% fetal bovine serum, 1% nonessential amino acids, and 1% penicillin–streptomycin–amphotericin B mixture, and were stored in humidified air containing 5% CO2 at 37 °C. All cell types were seeded into 96–well plates at a density of 5000 with the exception of C33a, which was seeded at a density of 10 000 and treated by increasing concentrations (0.1–30 μM) of the compounds for 72 h under cell culturing conditions. After the incubation, 5 mg/mL MTT [3-(4,5-dimethylthiazol-2-yl)-2,5-diphenyltetrazolium bromide] solution was added to samples for 4 h and precipitated blue formazan crystals were dissolved in DMSO. Absorbance values of the samples were measured at 545 nm using a microplate reader (Stat Fax-2100, Awareness Technologies Inc., Palm City, FL, USA) and untreated cells were used as control. Normalized sigmoidal dose–response curves were fitted to the determined data and the IC50 values were calculated by GraphPad Prism 5.01 (GraphPad Software, San Diego, CA, USA). Cisplatin (Ebewe Pharma GmbH, Unterach, Austria) was used as a reference agent in the same concentration range.

[2] = test system: A2780 cells; assay: MTT antiproliferative assay on A2780; assay type: cell-based, human; settings: for inhibition at 10 µM / inhibition at 30 µM / IC50: Homo sapiens; for inhibition at 10 µM: A2780, 10 μM; for inhibition at 10 µM / inhibition at 30 µM: read-out: Growth inhibition (% ± SEM), A2780; for inhibition at 30 µM: A2780, 30 μM; for IC50: A2780, MTT, 0.1–30 μM, 72 h, mean ± SEM, read-out: calculated IC50 values, A2780
Procedure: as §1, §2, §3

[3] = test system: SiHa cells; assay: MTT antiproliferative assay on SiHa; assay type: cell-based, human; settings: for inhibition at 10 µM / inhibition at 30 µM / IC50: Homo sapiens, SiHa; for inhibition at 10 µM / inhibition at 30 µM: read-out: Growth inhibition (% ± SEM), SiHa; for IC50: MTT, 0.1–30 μM, 72 h, mean ± SEM, read-out: calculated IC50 values, SiHa
Procedure: as §1, §2, §3

[4] = test system: NIH/3T3 mouse embryonic fibroblast cells; assay: MTT assay for tumor selectivity on NIH/3T3; assay type: cell-based; settings: for inhibition at 10 µM / inhibition at 30 µM / IC50: Mus musculus, NIH3T3; for inhibition at 10 µM / inhibition at 30 µM: read-out: Growth inhibition (% ± SEM), NIH; for IC50: 0.1–30 μM, 72 h, mean ± SEM, read-out: calculated IC50 values, NIH/3T3
Procedure: as §1, §2, §3

[5] = test system: C33A cells; assay: MTT antiproliferative assay on C33A; assay type: cell-based, human; settings: for inhibition at 10 µM / inhibition at 30 µM / IC50: Homo sapiens, C-33-A; for inhibition at 10 µM / inhibition at 30 µM: read-out: Growth inhibition (% ± SEM), C33a; for IC50: MTT, 0.1–30 μM, 72 h, mean ± SEM, read-out: calculated IC50 values, C33A
Procedure: as §1, §2, §3

[6] = test system: T47D cells; assay: MTT antiproliferative assay on T47D; assay type: cell-based, human; settings: for inhibition at 10 µM / inhibition at 30 µM / IC50: Homo sapiens, T47D; for inhibition at 10 µM / inhibition at 30 µM: read-out: Growth inhibition (% ± SEM), T47d; for IC50: MTT, 0.1–30 μM, 72 h, mean ± SEM, read-out: calculated IC50 values, T47D
Procedure: as §1, §2, §3

[7] = test system: HeLa cells; assay: MTT antiproliferative assay on HeLa; assay type: cell-based, human; settings: for inhibition at 10 µM / inhibition at 30 µM / IC50: Homo sapiens, HeLa; for inhibition at 10 µM / inhibition at 30 µM: read-out: Growth inhibition (% ± SEM), HeLa; for IC50: MTT, 0.1–30 μM, 72 h, mean ± SEM, read-out: calculated IC50 values, HeLa
Procedure: as §1, §2, §3

Row | SMILES | inhibition at 10 µM [1] [%] | inhibition at 30 µM [1] [%] | IC50 [1] [µM] | inhibition at 10 µM [2] [%] | inhibition at 30 µM [2] [%] | IC50 [2] [µM] | inhibition at 10 µM ([3]; 10 μM) [%] | inhibition at 30 µM ([3]; 30 μM) [%] | IC50 [3] [µM] | inhibition at 10 µM [4] [%] | inhibition at 30 µM [4] [%] | inhibition at 10 µM ([5]; 10 μM) [%] | inhibition at 30 µM ([5]; 30 μM) [%] | inhibition at 10 µM ([6]; 10 μM) [%] | inhibition at 30 µM ([6]; 30 μM) [%] | IC50 [6] [µM] | inhibition at 10 µM ([7]; 10 μM) [%] | inhibition at 30 µM ([7]; 30 μM) [%] | IC50 [7] [µM] | IC50 ([4]; MTT) [µM] | further results
1 | C=CC1=C(C)C(=O)C=C2C3=C(CC[C@]21OC)[C@@](C)(OC)C(=O)C=C3 [Compound 1b, 2,6-dioxo-1,8a-dimethoxy-1,7-dimethyl-8-vinyl-9,10-dihydrophenanthrenes] | 14.2 ± 3.54 | 31.9 ± 1.28 | > 30 | 52.2 ± 1.02 | 96.61 ± 0.23 | 9 ± 1 | < 10 | 27.7 ± 1.96 | > 30 | < 10 | 41.9 ± 1.35 | 46 ± 2.01 | 95.12 ± 0.44 | 13.6 ± 1.33 | 43.8 ± 1.31 | > 30 | 16.3 ± 2.68 | 42.6 ± 2.07 | > 30 |  | IC50 [5]: 10.2 ± 1.7 µM
2 | C=CC1=C(C)C(=O)C=C2C3=C(CC[C@@]21OC)[C@@](C)(OC)C(=O)C=C3 [Compound 1a, 2,6-dioxo-1,8a-dimethoxy-1,7-dimethyl-8-vinyl-9,10-dihydrophenanthrenes] | < 10 | 33.1 ± 1.15 | > 30 | 25.1 ± 1.6 | 87.7 ± 1.1 | 13.3 ± 1.5 | < 10 | < 10 | > 30 | < 10 | 32.1 ± 1.88 | 19.5 ± 2.08 | 87.97 ± 0.34 | 14.1 ± 1.87 | 32.5 ± 1.96 | > 30 | < 10 | 47.8 ± 3.28 | > 30 | > 30 | 
3 | C=CC1=C(C)C(=O)C=C2C3=C(CCC21OCC)C(C)(OCC)C(=O)C=C3 (single isomer, unassigned) [Compound 6a] | 19.6 ± 1.7 |  | > 30 |  |  | 11.2 ± 0.3 | < 10 |  | 29.7 ± 0.2 |  |  |  |  | < 10 |  | 22.9 ± 1.6 | < 10 |  | 25.9 ± 0.3 | 24.5 ± 1.9 | Growth inhibition (% ± SEM), MCF-7 ([1]; 30 μM): 45.64±0.26%; Growth inhibition (% ± SEM), A2780 ([2]; 10 μM): 43.71±2.91%; Growth inhibition (% ± SEM), A2780 ([2]; 30 μM): 93.85±0.75%; Growth inhibition (% ± SEM), SiHa ([3]; 30 μM): 68.74±1.56%; Growth inhibition (% ± SEM), C33a ([5]; 10 μM): 21.08±1.92%; Growth inhibition (% ± SEM), C33a ([5]; 30 μM): 93.17±0.50%; IC50 [5]: 14.1 ± 0.2 µM; Growth inhibition (% ± SEM), T47d ([6]; 30 μM): 63.48±0.80%; Growth inhibition (% ± SEM), HeLa ([7]; 30 μM): 67.85±1.23%
4 | C=CC1=C(C)C(=O)C=C2C3=C(CCC21OCC)C(C)(OCC)C(=O)C=C3 (single isomer, unassigned) [Compound 6b] |  |  |  |  |  |  |  |  |  |  |  |  |  |  |  |  |  |  |  |  | Growth inhibition (% ± SEM), MCF-7 ([1]; 10 μM): 14.17±2.25%; Growth inhibition (% ± SEM), MCF-7 ([1]; 30 μM): 21.81±2.36%; Growth inhibition (% ± SEM), A2780 ([2]; 10 μM): < 10%; Growth inhibition (% ± SEM), A2780 ([2]; 30 μM): < 10%; Growth inhibition (% ± SEM), SiHa ([3]; 10 μM): < 10%; Growth inhibition (% ± SEM), SiHa ([3]; 30 μM): < 10%; Growth inhibition (% ± SEM), C33a ([5]; 10 μM): < 10%; Growth inhibition (% ± SEM), C33a ([5]; 30 μM): < 10%; Growth inhibition (% ± SEM), T47d ([6]; 10 μM): < 10%; Growth inhibition (% ± SEM), T47d ([6]; 30 μM): < 10%; Growth inhibition (% ± SEM), HeLa ([7]; 10 μM): < 10%; Growth inhibition (% ± SEM), HeLa ([7]; 30 μM): < 10%
5 | C=CC1=C(C)C(=O)C=C2C3=C(CC[C@@]21OC)[C@](C)(OC)C(=O)C=C3 [Compound 1c, 2,6-dioxo-1,8a-dimethoxy-1,7-dimethyl-8-vinyl-9,10-dihydrophenanthrenes] | 10.2 ± 4.97 | 28.1 ± 1.14 | > 30 | 68.5 ± 0.75 | 98.88 ± 0.1 |  | < 10 | 57.5 ± 2.33 | 28.1 ± 0.1 | < 10 | 69.4 ± 1.87 | 85.7 ± 1.16 | 96.31 ± 0.17 | 36.4 ± 2.76 | 84.5 ± 1.63 | 12.5 ± 0.9 | 28.3 ± 1.66 | 36.1 ± 0.87 | > 30 |  | 
6 | C=CC1=C(C)C(=O)C=C2c3ccc(O)c(C)c3CC[C@@]21OCC [Compound 7a, 8a-ethoxy-1,7-dimethyl-6-oxo-8-vinyl-9,10-dihydrophenanthrene-2-ols] | 41.7 ± 1.37 | 54.5 ± 1.33 | 20.6 ± 0.3 | 82.1 ± 0.54 | 84.75 ± 0.4 |  | 17 ± 1.88 | < 10 | > 30 | 23.3 ± 1.48 | 33.8 ± 1.74 | 73.18 ± 0.61 | 86.42 ± 0.5 | 57.4 ± 2.46 | 57 ± 1.24 |  | 71.1 ± 1.57 | 86.1 ± 1.29 |  |  | activity against nontumoral NIH/3T3 cells (in words) ([4]; MTT): inactive
7 | C=CC1=C(C)C(=O)C=C2c3ccc(O)c(C)c3CC[C@@]21OC [Compound 4a] | 61.5 ± 1.87 | 58.5 ± 0.86 |  | 44.5 ± 2.01 | 73.18 ± 0.4 |  | < 10 | 26.3 ± 1.36 | > 30 | 19.2 ± 1.41 | 51.7 ± 1.68 | 58.41 ± 0.31 | 66.6 ± 0.74 | 37 ± 1.07 | 48.1 ± 1.47 | > 30 | 88.1 ± 0.89 | 62.3 ± 2 |  |  | 
8 | C=CC1=C(C)C(=O)C=C2C3=C(CCC21OC)C(C)(OC)C(=O)C=C3 (centres unmarked) [1a–1d, 2,6-dioxo-1,8a-dimethoxy-1,7-dimethyl-8-vinyl-9,10-dihydrophenanthrenes] | 28.7 ± 1.81 | 67.1 ± 1.9 | 11.6 | 67.1 ± 1.37 | 94.93 ± 0.94 |  | 18.1 ± 3.53 | 77.9 ± 0.78 | 20 |  |  | 74.3 ± 0.8 | 94.97 ± 0.12 | 14.6 ± 4.44 | 76 ± 2.1 |  | 12.7 ± 1.94 | 86.7 ± 1.22 |  | 17.7 ± 0.7 | 
9 | C=CC1=C(C)C(=O)C=C2C3=C(CC[C@]21OC)[C@](C)(OC)C(=O)C=C3 [Compound 1d, 2,6-dioxo-1,8a-dimethoxy-1,7-dimethyl-8-vinyl-9,10-dihydrophenanthrenes] | < 10 | 34.6 ± 1.38 | > 30 | 45.1 ± 2.08 | 92.39 ± 0.36 | 11 ± 0.4 | < 10 | 11.6 ± 2.33 | > 30 | < 10 | 30.7 ± 2.04 | 22.1 ± 1.44 | 89.4 ± 1 | < 10 | 41.8 ± 1.15 | > 30 | 11.4 ± 2.71 | 25.1 ± 3.84 | > 30 | > 30 | IC50 [5]: 13 ± 0.2 µM
